Experimental data reported in ChEMBL document CHEMBL1129457, “Indole inhibitors of human nonpancreatic secretory phospholipase A2. 1. Indole-3-acetamides” (J Med Chem, 1996).

Columns and labels:
[1] = species: Cavia porcellus; assay: Inhibition of AA (arachidonic acid) - induced contraction of GP lung tissue (n=4).; format: functional
[2] = molecular target: T1, Phospholipase A2, membrane associated (Homo sapiens) (UniProt P14555); assay: Inhibition of PLA2 induced contraction of GP lung tissue (Guinea pig) (n=4); format: functional, tissue-based; conditions: Cavia porcellus, target entry is the homologue from another species
T1 sequence (whole entry): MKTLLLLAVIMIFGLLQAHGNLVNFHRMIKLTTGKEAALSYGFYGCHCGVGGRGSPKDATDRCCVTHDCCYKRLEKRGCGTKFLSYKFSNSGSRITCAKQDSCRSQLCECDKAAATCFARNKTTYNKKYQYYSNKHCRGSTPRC

[3] = molecular target: T2, Phospholipase A2, membrane associated (Homo sapiens, UniProt P14555); assay: Inhibition of Human Nonpancreatic Secretory Phospholipase A2 through Chromogenic assay; format: functional
T2 sequence (P14555 whole entry): T1 sequence (whole entry)

[4] = molecular target: T1, Phospholipase A2, membrane associated (Homo sapiens); assay: Inhibition of Human Nonpancreatic Secretory PLA2 through Chromogenic assay at 47ug/mL; format: functional
[5] = molecular target: T1, Phospholipase A2, membrane associated (Homo sapiens); assay: Mole fraction as PLA2 IC50 concentration divided by total lipid concentration (1230 uM); format: functional

SMILES | Kb [2] [µM] | IC50 [3] [µM] | also measured
COc1ccc2c(c1)c(CC(=O)NN)c(C)n2Cc1ccccc1-c1ccccc1 | > 10 |  | ED50 [1]: >10 µM
CCCCCCC(C(=O)NN)c1c(C)n(Cc2ccccc2)c2ccc(OC)cc12 (stereo unspecified) |  | 101 | 
CCC(C(=O)NN)c1c(C)n(Cc2ccccc2)c2ccc(OC)cc12 (stereo unspecified) |  | 24.2 | 
COc1ccc2c(c1)c(C(=O)C(N)=O)c(C)n2Cc1ccccc1 |  | 1.23 | 
COc1ccc2c(c1)c(CC(=O)NN)c(C)n2Cc1cccc(O)c1 | 5.96 |  | ED50 [1]: >30 µM
COc1cccc2c1c(CC(=O)NN)c(C)n2Cc1cccc(Cl)c1 |  | 0.23 | 
COc1cccc2c1c(CC(N)=O)c(C)n2Cc1cccc(Cl)c1 |  | 1.38 | 
CCc1c(CC(N)=O)c2cc(OC)ccc2n1Cc1ccccc1 | 5.91 |  | ED50 [1]: >30 µM
COc1ccc2c(c1)c(Cc1nnn[nH]1)c(C)n2Cc1ccccc1 |  | 84.7 | 
COc1ccc2c(c1)c(CC(=O)NN)c(Br)n2Cc1ccccc1 | 0.76 |  | ED50 [1]: 7.32 µM
COc1ccc2c(c1)c(CC(=O)NN)c(C)n2C(c1ccccc1)c1ccccc1 |  | 40.2 | 
CCc1c(C(O)C(N)=O)c2c(OC)cccc2n1Cc1ccccc1 (stereo unspecified) |  | 53 | 
Cc1c(CC(N)=O)c2cc([N+](=O)[O-])ccc2n1Cc1ccccc1 |  | 1.51 | 
COc1ccc2c(c1)c(CC(N)=O)c(C)n2CCCc1ccccc1 |  | 11.1 | 
CCc1c(CC(=O)NN)c2cc(OC)ccc2n1Cc1ccccc1-c1ccccc1 | 30.1 | 2.35 | ED50 [1]: >30 µM
CCc1c(CC(N)=O)c2c(OC)cccc2n1Cc1ccccc1 |  | 1.18 | 
COc1ccc2c(C(O)C(N)=O)c(C)n(Cc3ccccc3)c2c1 (stereo unspecified) |  | 121 | 
COc1cccc2c1c(CC(=O)NN)c(C)n2Cc1ccccc1 |  | 0.55 | 
COC(=O)Cc1c(C)n(Cc2ccccc2)c2ccc(OC)cc12 |  | 116 | 
CONC(=O)Cc1c(C)n(Cc2ccccc2)c2ccc(OC)cc12 |  | 40 | 
COc1ccc2c(c1)c(CCC(N)=O)c(C)n2Cc1ccccc1 |  | 28.1 | 
Cc1c(CC(N)=O)c2cc(N)ccc2n1Cc1ccccc1 | 1.98 |  | ED50 [1]: 14.5 µM
COc1ccc2c(c1)c(CC(N)=O)c(SC)n2Cc1ccccc1 | 7.93 | 0.45 | 
CCc1c(CC(=O)NN)c2cc(OC)ccc2n1Cc1ccccc1 | 2.04 |  | ED50 [1]: >30 µM
CNC(=O)Cc1c(C)n(Cc2ccccc2)c2ccc(OC)cc12 |  | 142 | 
COc1ccc2c(c1)c(CC(=N)N)c(C)n2Cc1ccccc1 |  | 64.7 | 

SMILES | Kb [2] [µM] | IC50 [3] [µM] | also measured
COc1cccc(Cn2c(C)c(CC(=O)NN)c3cc(OC)ccc32)c1 |  | 2.12 | 
CCc1c(C(=O)C(N)=O)c2c(OC)cccc2n1Cc1ccccc1 |  | 0.55 | 
COc1ccc2c(c1)c(CC(=N)S)c(C)n2Cc1ccccc1 |  | 74.1 | 
COc1ccc2c(c1)c(CC(=O)NN)c(C)n2Cc1cccc(OCc2ccccc2)c1 | 3.86 |  | ED50 [1]: >30 µM
Cc1c(CC(=O)NN)c2ccccc2n1-c1ccccc1 |  | 38.2 | 
COc1ccc2c(c1)c(CC(=O)NN)c(C)n2Cc1cccc(-c2ccccc2)c1 | 22.6 |  | 
COc1ccc2c(c1)c(CC(=O)NN)c(C)n2Cc1cccc(Cl)c1 | 1.13 | 1.36 | ED50 [1]: >30 µM
COc1ccc2c(c1)c(C(C)C(=O)NN)c(C)n2Cc1ccccc1 (stereo unspecified) |  | 32.6 | 
COc1ccc2c(c1)c(CC#N)c(C)n2Cc1ccccc1 |  |  | inhibition [4]: 45%; Mole fraction [5]: Mole fraction as PLA2 IC50 concentration divided by total lipid concentration (1230 uM)
COc1ccc2c(c1)c(C(O)C(N)=O)c(C)n2Cc1ccccc1 (stereo unspecified) |  | 20.1 | 
COc1ccc2c(c1)c(CC(=O)NN)c(Cl)n2Cc1ccccc1 | 0.85 |  | ED50 [1]: 9.37 µM
CCc1c(C(=O)C(N)=O)c2c([N+](=O)[O-])cccc2n1Cc1ccccc1 |  | 37.8 | 
CCCCCCCCCCn1c(C)c(CC(N)=O)c2cc(OC)ccc21 |  | 9.47 | 
COc1ccc2c(c1)c(CC(=O)NN)cn2Cc1ccccc1 | 5.64 | 4.9 | ED50 [1]: >10 µM
COc1ccc2c(c1)c(CC(N)=O)c(C)n2C(=O)c1ccccc1 |  | 7.21 | 
COc1ccc2c(c1)c(CC(N)=O)c(C)n2Cc1cccc(Cl)c1 |  | 0.91 | 
COc1ccc2c(C(=O)C(N)=O)c(C)n(Cc3ccccc3)c2c1 |  | 1.77 | 
Cc1c(CC(=O)NN)c2cc(C(=O)O)ccc2n1Cc1cccc(Cl)c1 | 1.39 |  | ED50 [1]: >30 µM
COc1ccc2c(c1)c(CC(=O)NN)c(C)n2Cc1cccc(N)c1 |  | 4.32 | 
COc1ccc2c(c1)c(CC(=O)NN)c(C1CC1)n2Cc1ccccc1 |  | 0.39 | 
COc1ccc2c(c1)c(CC(N)=O)c(C)n2CC1CCCCC1 | 22.5 |  | ED50 [1]: 25.65 µM
CCc1c(C(=O)C(N)=O)c2cc(OC)ccc2n1Cc1ccccc1 |  | 2.56 | 
COc1ccc2c(c1)c(CC(=O)O)c(C)n2Cc1ccccc1 |  | 13.6 | 
COc1ccc2c(c1)c(CC(=O)NN)c(SC)n2Cc1ccccc1 |  | 0.62 | 
CCCc1c(CC(=O)NN)c2cc(OC)ccc2n1Cc1ccccc1 | 27.1 |  | ED50 [1]: >30 µM
CCCCCCCCCCn1c(C)c(CC(=O)NN)c2cc(OC)ccc21 |  | 9.43 | 
